Tests used:
[1] = target: Interleukin-1 receptor-associated kinase 1 (Homo sapiens) (UniProt P51617); experiment: Selectivity interaction (KinomeScan (DiscoverX)) EUB0001049a IRAK1; conditions: at 1 µM
[2] = target: T1, Inhibitor of nuclear factor kappa-B kinase subunit alpha (Homo sapiens) (UniProt O15111); experiment: Selectivity interaction (KinomeScan (DiscoverX)) EUB0000229b CHUK; conditions: at 10 µM
T1 sequence (whole entry): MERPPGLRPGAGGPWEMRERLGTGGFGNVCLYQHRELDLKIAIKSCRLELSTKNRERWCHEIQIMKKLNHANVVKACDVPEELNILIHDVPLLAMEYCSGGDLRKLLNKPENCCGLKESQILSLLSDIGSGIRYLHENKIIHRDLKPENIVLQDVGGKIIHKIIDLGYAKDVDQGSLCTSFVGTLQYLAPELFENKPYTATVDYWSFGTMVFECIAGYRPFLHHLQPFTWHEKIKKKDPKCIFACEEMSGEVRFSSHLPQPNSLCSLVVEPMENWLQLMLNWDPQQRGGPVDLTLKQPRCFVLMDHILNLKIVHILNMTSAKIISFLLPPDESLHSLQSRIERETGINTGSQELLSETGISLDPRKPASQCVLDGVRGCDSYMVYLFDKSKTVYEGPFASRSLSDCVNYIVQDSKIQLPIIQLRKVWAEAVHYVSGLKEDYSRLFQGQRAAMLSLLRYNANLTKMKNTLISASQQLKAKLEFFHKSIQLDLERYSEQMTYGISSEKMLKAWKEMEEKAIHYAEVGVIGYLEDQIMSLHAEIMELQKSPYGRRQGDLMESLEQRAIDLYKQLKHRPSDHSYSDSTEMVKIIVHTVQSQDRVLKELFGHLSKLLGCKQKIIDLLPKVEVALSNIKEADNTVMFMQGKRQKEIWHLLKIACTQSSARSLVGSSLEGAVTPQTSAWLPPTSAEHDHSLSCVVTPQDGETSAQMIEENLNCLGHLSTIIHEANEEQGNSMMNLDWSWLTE

[3] = target: T2, Ephrin type-B receptor 4 (Homo sapiens) (UniProt P54760); experiment: Selectivity interaction (KinomeScan (DiscoverX)) EUB0000229b EPHB4; conditions: at 10 µM
T2 sequence (whole entry): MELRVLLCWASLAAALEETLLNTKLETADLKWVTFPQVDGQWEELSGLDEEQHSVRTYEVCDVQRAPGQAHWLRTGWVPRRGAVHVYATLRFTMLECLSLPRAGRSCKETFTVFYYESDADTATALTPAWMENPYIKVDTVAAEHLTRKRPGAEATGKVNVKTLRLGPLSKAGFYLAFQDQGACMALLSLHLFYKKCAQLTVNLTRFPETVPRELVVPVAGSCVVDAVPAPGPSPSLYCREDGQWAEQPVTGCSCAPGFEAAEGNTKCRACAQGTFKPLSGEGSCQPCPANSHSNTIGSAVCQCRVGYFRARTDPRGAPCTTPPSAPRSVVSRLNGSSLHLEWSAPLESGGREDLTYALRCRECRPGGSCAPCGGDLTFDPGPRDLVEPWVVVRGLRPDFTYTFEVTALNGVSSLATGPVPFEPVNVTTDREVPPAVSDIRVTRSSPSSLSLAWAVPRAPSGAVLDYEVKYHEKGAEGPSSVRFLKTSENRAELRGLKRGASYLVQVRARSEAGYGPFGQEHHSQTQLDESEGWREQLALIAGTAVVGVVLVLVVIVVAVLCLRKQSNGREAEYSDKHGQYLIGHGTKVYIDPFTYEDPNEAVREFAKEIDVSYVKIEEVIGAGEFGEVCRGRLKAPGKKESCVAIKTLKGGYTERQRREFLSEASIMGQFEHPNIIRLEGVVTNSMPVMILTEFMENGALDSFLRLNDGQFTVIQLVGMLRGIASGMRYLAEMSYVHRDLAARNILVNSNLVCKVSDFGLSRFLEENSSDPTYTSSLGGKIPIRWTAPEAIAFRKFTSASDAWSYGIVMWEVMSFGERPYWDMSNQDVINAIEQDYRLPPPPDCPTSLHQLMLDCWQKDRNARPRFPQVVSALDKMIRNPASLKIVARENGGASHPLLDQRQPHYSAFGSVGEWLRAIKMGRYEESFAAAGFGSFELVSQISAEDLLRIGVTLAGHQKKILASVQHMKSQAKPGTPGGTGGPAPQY

[4] = target: Cyclin-dependent kinase 15 (Homo sapiens) (UniProt Q96Q40); experiment: Selectivity interaction (KinomeScan (DiscoverX)) EUB0001079a CDK15; conditions: at 1 µM
Cyclin-dependent kinase 15 (Homo sapiens), sequence (Q96Q40 whole entry): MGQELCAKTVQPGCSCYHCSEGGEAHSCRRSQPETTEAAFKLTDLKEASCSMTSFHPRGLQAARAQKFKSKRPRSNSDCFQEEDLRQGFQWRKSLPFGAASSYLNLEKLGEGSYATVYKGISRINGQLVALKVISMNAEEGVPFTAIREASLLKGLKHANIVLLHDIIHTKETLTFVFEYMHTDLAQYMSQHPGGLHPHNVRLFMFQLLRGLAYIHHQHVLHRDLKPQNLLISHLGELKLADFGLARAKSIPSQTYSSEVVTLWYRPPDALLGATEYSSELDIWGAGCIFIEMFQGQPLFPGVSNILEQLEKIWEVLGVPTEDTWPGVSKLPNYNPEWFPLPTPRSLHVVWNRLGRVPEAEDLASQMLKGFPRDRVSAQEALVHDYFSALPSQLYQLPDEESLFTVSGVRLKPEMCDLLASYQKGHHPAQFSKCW

[5] = target: Mitogen-activated protein kinase 14 (Homo sapiens, UniProt Q16539); experiment: Selectivity interaction (ActivX KiNativ screen (kinase selectivity in THP-1 cell lysates)) EUB0000639a MAPK14; format: subcellular; conditions: lysate, at 0.2 µM
Mitogen-activated protein kinase 14, sequence (Q16539 whole entry): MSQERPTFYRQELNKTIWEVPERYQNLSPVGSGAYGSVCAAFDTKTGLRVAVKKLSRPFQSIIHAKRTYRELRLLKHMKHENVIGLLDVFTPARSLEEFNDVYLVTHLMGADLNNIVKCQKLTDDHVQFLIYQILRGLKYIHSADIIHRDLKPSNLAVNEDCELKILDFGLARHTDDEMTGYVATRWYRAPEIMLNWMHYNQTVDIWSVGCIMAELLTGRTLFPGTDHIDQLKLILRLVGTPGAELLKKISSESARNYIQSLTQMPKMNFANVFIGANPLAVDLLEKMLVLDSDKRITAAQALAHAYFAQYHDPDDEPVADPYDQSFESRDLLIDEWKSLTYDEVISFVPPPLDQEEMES

[6] = target: Tyrosine-protein kinase Blk (Homo sapiens) (UniProt P51451); experiment: Selectivity interaction (KinomeScan (DiscoverX)) EUB0000618a BLK; conditions: at 10 µM
Tyrosine-protein kinase Blk (Homo sapiens), sequence (P51451 2-505 limits assumed): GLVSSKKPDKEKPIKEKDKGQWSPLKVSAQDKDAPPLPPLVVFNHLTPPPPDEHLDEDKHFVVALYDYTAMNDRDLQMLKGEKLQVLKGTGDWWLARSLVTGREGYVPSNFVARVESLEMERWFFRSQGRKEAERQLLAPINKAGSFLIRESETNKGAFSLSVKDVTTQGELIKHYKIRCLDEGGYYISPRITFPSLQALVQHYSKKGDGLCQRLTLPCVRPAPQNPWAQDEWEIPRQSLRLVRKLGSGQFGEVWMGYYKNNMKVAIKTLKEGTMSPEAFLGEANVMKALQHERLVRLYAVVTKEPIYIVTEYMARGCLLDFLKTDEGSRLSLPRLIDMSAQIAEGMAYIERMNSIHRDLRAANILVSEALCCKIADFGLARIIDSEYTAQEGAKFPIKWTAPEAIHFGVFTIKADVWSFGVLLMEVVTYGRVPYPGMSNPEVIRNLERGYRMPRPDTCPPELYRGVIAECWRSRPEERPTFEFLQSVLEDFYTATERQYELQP

[7] = target: Protein kinase C eta type (Homo sapiens) (UniProt P24723); conditions: at 10 µM
Protein kinase C eta type (Homo sapiens), sequence (P24723 whole entry): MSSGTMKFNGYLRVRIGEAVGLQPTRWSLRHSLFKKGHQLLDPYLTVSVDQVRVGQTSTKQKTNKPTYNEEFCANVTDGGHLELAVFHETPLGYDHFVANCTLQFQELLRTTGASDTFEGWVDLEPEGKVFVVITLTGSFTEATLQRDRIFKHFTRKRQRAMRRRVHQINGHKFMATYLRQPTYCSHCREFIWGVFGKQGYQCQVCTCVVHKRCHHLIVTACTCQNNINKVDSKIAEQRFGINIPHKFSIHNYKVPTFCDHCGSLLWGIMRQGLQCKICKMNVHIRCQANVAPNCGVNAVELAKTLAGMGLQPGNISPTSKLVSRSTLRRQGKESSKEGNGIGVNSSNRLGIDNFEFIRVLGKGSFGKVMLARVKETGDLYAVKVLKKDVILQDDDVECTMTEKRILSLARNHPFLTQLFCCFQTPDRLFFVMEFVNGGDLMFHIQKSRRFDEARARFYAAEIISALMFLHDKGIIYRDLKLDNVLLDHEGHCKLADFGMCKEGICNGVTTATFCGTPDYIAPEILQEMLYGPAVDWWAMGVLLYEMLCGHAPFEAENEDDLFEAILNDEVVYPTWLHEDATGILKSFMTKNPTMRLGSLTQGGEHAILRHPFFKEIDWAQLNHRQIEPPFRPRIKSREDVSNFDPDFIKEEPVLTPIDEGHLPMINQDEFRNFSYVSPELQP

[8] = target: MAP kinase-interacting serine/threonine-protein kinase 1 (Homo sapiens) (UniProt Q9BUB5); conditions: at 10 µM
MAP kinase-interacting serine/threonine-protein kinase 1 (Homo sapiens), sequence (Q9BUB5 whole entry, looked up): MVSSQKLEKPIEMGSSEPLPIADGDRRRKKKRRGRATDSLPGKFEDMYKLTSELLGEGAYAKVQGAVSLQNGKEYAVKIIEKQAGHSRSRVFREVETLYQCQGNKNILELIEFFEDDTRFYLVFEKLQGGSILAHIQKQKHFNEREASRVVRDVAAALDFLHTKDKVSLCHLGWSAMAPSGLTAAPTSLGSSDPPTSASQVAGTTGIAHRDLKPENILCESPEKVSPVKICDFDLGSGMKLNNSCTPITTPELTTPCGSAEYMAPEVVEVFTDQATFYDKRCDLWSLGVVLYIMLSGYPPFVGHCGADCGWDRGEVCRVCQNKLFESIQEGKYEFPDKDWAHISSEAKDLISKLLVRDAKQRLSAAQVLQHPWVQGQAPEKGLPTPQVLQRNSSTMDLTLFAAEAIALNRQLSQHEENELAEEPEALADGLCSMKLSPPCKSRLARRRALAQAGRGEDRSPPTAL

[9] = target: Fibroblast growth factor receptor 4 (Homo sapiens, UniProt P22455); experiment: Selectivity interaction (Upstate Kinase Profiler service (Millipore)) EUB0000056c FGFR4; conditions: at 1 µM
Fibroblast growth factor receptor 4, sequence (P22455 22-802 limits assumed): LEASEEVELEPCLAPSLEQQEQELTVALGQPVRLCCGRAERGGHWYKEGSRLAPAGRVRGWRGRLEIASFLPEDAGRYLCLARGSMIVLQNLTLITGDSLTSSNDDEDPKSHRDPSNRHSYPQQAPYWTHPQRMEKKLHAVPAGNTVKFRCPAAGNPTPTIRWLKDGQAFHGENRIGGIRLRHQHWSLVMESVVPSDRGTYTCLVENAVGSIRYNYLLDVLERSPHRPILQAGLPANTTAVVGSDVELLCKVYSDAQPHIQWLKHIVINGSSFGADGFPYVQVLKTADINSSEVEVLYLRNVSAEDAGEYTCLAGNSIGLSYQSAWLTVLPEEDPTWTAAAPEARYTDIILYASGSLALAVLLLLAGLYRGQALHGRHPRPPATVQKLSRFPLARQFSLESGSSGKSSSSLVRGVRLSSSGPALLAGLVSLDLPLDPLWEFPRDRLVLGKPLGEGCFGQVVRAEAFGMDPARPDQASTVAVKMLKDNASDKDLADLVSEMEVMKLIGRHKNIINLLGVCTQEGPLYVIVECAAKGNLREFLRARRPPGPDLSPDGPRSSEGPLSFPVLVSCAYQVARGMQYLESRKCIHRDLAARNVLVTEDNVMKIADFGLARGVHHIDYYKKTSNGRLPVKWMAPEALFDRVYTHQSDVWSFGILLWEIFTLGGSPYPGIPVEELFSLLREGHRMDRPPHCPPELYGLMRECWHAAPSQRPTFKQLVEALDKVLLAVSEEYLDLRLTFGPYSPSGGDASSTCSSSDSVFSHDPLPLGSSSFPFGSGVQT

Interleukin-1 receptor-associated kinase 1 (Homo sapiens), sequence (P51617 whole entry, looked up): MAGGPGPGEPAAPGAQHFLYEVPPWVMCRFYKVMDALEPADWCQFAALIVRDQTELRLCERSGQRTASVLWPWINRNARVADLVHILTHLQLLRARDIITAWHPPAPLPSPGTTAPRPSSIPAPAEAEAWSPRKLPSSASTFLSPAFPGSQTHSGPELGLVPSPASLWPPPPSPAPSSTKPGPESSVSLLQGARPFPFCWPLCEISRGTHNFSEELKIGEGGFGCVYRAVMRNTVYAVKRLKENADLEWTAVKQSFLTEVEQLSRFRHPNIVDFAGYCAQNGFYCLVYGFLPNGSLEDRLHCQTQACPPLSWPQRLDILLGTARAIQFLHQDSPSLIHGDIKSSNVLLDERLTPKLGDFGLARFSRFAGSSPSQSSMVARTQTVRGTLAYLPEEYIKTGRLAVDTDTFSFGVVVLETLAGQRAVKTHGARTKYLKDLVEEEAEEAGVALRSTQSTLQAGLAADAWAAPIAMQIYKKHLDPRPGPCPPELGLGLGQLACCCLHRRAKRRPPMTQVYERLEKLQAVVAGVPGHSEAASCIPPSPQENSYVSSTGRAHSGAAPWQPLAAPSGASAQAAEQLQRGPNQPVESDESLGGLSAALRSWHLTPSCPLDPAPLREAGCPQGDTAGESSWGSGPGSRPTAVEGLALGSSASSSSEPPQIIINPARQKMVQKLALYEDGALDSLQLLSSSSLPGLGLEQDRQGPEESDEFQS

With `COc1cc(Nc2nc(C)cc(-c3cnn4nc(OC)ccc34)n2)cc(C(F)(F)F)c1` the % of control [1] was 91%.
In the case of `COc1cc(N(C)c2ccnc3ccc(C(F)(F)F)cc23)cc(OC)c1OC`, the % binding [2] is reported as 92% and the % binding [3] is reported as 100%.
Molecule `Nc1cnc(N2CCc3cc(S(=O)(=O)Nc4c(F)cc(Cl)cc4F)cc(N4CCCC4=O)c32)nc1` [TP-020n] has a % of control [4] of 80%.
With `CC[C@@H]1[C@H](F)C(=O)N[C@@H]1COc1nccc2cc(C(N)=O)c(OC)cc12` [ZIMLOVISERTIB] the % of inhibition [5] was -1.8%.
`O[C@H]1CC[C@H](Nc2ncc3nc(Nc4c(F)cc(F)cc4F)n([C@H]4CCOC4)c3n2)CC1` showed a % of control [6] of 98%.
`Cc1cc([C@@H](C)Nc2ccccc2C(=O)O)c2nc(N3CCOCC3)cc(=O)n2c1` [AZD-6482] showed a % of control [7] of 82% and a % of control [8] of 92%.
Molecule `Cc1ccc(-c2ccc3c(ccc4sc5c(c43)NC[C@@H](C)NC5=O)n2)cn1` has a % of inhibition [9] of 8%.
